Assay results taken from patent US8415469B2, “Compounds and methods for kinase modulation, and indications therefor” (Plexxikon Inc., priority 2005, dated 2013).
Values belong to the compound of their own block, whether it stands above or below them.

Experiments:
Type in all cases: biochemical
PKC theta = molecular target: T1, PKC theta (Homo sapiens, UniProt Q04759); test: Z'-Lyte FRET kinase assay (Invitrogen), PKC theta; conditions: read-out: IC50, activity toward kinase PKC theta
T1 construct: purchased Invitrogen (Carlsbad, Calif.), screening service
T1 sequence (Q04759 whole entry): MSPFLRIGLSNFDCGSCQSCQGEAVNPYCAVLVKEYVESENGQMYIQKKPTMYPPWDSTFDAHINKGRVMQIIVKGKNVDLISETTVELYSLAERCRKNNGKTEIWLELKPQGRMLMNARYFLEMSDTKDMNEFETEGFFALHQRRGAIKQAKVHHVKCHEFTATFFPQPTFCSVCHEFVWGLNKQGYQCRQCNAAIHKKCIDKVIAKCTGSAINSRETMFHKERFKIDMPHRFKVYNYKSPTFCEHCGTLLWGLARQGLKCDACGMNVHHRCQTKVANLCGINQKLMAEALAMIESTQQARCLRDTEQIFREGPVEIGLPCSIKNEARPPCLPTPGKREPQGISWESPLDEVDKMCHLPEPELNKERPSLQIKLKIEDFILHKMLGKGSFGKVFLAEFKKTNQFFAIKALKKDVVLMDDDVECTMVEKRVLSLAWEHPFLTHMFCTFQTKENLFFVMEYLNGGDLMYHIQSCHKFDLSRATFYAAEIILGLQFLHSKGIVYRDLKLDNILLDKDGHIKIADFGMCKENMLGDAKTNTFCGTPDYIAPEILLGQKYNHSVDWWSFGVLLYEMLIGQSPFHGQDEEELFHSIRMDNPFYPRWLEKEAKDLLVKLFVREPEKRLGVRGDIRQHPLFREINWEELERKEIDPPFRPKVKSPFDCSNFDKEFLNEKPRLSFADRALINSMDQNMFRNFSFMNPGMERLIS
Excerpt: The effect of potential modulators of kinase activity can be measured in a variety of different assays known in the art. For example, direct radiometric, indirect FRET or AlphaScreen assays may be used to assess the level of phosphorylation of a substrate in the presence of test compounds in order to determine the inhibitory affect of the compound on the kinase. Invitrogen (Carlsbad, Calif.) uses a FRET based assay for Btk, EGFR, EphB2, Flt3, lrak4, Kdr, MAP2K1, MAPKAPK2, PDGFRB, PKC theta, Stk6 and Yes. For these assays, compounds of the invention were screened by Invitrogen using Z′-Lyte™ kinase assay.
Briefly, the Invitrogen kinase assay involves use of a specific peptide substrate optimized for each kinase, containing a fluorophore at each end that make up the FRET pair. The peptide sensitivity to proteolytic cleavage depends on phosphorylation of the peptide. Non-phosphorylated peptide is cleaved by a protease while peptide phosphorylated by the kinase is not cleaved. Cleavage of the peptide disrupts the FRET between the donor (coumarin) and acceptor (fluorescein) fluorophores, resulting in an increase in the ratio of donor emission to acceptor emission. The emission ratio of coumarin to fluorescein is used to assess the reaction progress. The extent of phosphorylation is determined from the emission ratio, which is low when the kinase is active (phosphorylated peptide is not cleaved, FRET pair connected) or higher for inhibited kinase (non-phosphorylated peptide is cleaved, FRET pair separated). Thus, the assay involves a kinase reaction in the presence of varying concentrations of a given compound, a development reaction with site specific protease, and detection of the fluorescent emission ratio of coumarin and fluorscein. […] Reaction conditions for each kinase are determined to provide optimal reaction times, incubation temperature, kinase and ATP concentrations. Test samples are made up in 1× kinase buffer (50 mM HEPES pH 7.5, 50 mM MgCl2, 5 mM EGTA, 0.05% BRIJ-35) and compound at desired concentration prepared in DMSO such that the final DMSO is 1%. […] Typically, assay plates are prepared to 10 μl final volume per sample, adding 2.5 μl of compound at 4× the desired concentration in 4% DMSO (serial dilution of compound provides concentration curve), 5 μl of the desired kinase mixed with Z′-LYTE™ peptide substrate (2× in 2× kinase buffer, final peptide at 2 μM), and 2.5 μl of 4×ATP solution. All kinase except for MAP2K1 were at 10 μM ATP in the kinase reaction, while MAP2K1 was at 100 μM. Samples are mixed and the kinase reaction is incubated 1 hour at room temperature, after which 5 μl of development solution is added and mixed. After incubation for another 1 hour at room temperature, 5 μl of stop reagent is added to each sample and mixed. The fluorescence signals are measured to determine the emission ratio.

Kit = molecular target: T2, Kit (Homo sapiens, UniProt P10721); test: AlphaScreen kinase assay, Kit; conditions: read-out: IC50, activity toward kinase Kit
T2 construct: P1332.N6 BI PTP KIT M552-K948-X COD; His6 (N); made in house; host or cells: E. coli (PTP1B co-expressed)
T2 sequence (P10721 with tags, fused parts or gaps): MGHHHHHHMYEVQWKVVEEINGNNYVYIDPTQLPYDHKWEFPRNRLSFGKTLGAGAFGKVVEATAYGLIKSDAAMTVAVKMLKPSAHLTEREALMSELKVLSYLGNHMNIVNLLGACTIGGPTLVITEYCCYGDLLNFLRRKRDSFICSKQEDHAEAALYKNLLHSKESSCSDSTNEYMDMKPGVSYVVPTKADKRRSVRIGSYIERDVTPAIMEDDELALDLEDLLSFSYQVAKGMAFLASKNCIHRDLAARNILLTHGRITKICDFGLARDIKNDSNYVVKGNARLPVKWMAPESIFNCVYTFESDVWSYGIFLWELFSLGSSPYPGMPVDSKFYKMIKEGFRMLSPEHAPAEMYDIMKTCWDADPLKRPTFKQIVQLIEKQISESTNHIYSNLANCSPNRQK

Pyk2 = molecular target: T3, Pyk2 (Homo sapiens, UniProt Q14289); test: AlphaScreen kinase assay, Pyk2; conditions: read-out: IC50, activity toward kinase Pyk2
T3 construct: purchased Upstate Biotechnology
T3 sequence (Q14289 whole entry): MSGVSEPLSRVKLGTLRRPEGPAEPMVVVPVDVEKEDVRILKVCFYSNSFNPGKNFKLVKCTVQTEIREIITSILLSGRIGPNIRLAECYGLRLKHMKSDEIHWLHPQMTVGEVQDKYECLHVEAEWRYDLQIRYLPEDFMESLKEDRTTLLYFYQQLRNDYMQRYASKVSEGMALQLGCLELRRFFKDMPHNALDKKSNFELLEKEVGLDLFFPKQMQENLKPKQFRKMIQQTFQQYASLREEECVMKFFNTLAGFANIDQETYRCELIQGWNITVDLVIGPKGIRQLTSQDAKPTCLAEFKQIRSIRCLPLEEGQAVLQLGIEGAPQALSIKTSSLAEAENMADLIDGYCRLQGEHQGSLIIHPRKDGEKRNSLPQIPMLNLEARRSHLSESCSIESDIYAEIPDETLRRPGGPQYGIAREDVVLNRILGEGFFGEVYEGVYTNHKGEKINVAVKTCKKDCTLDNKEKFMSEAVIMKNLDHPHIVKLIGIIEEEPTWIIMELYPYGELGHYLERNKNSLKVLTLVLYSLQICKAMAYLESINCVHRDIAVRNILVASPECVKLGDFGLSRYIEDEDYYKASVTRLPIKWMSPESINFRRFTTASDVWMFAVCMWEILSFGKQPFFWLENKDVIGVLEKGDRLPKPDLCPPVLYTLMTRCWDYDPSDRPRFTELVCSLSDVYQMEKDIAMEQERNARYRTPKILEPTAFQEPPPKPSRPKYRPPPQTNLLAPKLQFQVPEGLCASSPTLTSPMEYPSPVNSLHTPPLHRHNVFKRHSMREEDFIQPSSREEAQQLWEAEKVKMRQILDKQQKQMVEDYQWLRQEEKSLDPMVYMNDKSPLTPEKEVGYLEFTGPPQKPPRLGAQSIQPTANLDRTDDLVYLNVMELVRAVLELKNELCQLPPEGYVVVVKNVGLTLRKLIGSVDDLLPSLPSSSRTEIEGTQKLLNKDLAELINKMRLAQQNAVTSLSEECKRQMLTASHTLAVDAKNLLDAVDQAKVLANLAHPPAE

MAP4K4 = MAP4K4 (Homo sapiens, UniProt O95819); test: AlphaScreen kinase assay, MAP4K4; conditions: read-out: IC50, activity toward kinase MAP4K4
Ret = molecular target: T4, Ret (Homo sapiens, UniProt P07949); test: AlphaScreen kinase assay, Ret; conditions: read-out: IC50, activity toward kinase Ret
T4 construct: P1378.pET-SF BI-PTP RET H661-R1012 HIS; made in house
T4 sequence (P07949 with tags, fused parts or gaps): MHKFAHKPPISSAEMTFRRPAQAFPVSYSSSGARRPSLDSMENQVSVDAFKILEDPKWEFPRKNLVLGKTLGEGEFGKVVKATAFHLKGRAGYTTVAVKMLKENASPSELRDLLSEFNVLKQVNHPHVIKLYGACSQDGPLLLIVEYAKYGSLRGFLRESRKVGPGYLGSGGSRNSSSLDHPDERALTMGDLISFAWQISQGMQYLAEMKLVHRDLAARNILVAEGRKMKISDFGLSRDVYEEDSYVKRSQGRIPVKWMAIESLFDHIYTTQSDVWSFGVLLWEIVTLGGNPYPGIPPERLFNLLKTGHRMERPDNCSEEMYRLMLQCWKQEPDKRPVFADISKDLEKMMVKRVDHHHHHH

Stk6 = molecular target: T5, Stk6 (Homo sapiens, UniProt O14965); test: Z'-Lyte FRET kinase assay (Invitrogen), Stk6; conditions: read-out: IC50, activity toward kinase Stk6
T5 construct: purchased Invitrogen (Carlsbad, Calif.), screening service
T5 sequence (O14965 1-403): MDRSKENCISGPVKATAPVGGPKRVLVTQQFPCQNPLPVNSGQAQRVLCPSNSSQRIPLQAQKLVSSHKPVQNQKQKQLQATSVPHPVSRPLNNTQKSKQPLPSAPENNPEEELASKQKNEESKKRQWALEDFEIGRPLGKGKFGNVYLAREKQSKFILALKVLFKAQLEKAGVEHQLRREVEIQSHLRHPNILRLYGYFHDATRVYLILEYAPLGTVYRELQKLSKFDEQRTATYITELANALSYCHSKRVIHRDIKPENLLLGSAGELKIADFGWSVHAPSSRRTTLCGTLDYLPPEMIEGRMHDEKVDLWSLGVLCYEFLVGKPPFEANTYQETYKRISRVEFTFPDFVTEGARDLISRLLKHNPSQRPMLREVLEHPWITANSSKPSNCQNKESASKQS

Kdr = molecular target: T6, Kdr (Homo sapiens, UniProt P35968); test: Z'-Lyte FRET kinase assay (Invitrogen), Kdr; conditions: read-out: IC50, activity toward kinase Kdr
T6 construct: purchased Invitrogen (assay run by Invitrogen)
T6 sequence (P35968 20-1356): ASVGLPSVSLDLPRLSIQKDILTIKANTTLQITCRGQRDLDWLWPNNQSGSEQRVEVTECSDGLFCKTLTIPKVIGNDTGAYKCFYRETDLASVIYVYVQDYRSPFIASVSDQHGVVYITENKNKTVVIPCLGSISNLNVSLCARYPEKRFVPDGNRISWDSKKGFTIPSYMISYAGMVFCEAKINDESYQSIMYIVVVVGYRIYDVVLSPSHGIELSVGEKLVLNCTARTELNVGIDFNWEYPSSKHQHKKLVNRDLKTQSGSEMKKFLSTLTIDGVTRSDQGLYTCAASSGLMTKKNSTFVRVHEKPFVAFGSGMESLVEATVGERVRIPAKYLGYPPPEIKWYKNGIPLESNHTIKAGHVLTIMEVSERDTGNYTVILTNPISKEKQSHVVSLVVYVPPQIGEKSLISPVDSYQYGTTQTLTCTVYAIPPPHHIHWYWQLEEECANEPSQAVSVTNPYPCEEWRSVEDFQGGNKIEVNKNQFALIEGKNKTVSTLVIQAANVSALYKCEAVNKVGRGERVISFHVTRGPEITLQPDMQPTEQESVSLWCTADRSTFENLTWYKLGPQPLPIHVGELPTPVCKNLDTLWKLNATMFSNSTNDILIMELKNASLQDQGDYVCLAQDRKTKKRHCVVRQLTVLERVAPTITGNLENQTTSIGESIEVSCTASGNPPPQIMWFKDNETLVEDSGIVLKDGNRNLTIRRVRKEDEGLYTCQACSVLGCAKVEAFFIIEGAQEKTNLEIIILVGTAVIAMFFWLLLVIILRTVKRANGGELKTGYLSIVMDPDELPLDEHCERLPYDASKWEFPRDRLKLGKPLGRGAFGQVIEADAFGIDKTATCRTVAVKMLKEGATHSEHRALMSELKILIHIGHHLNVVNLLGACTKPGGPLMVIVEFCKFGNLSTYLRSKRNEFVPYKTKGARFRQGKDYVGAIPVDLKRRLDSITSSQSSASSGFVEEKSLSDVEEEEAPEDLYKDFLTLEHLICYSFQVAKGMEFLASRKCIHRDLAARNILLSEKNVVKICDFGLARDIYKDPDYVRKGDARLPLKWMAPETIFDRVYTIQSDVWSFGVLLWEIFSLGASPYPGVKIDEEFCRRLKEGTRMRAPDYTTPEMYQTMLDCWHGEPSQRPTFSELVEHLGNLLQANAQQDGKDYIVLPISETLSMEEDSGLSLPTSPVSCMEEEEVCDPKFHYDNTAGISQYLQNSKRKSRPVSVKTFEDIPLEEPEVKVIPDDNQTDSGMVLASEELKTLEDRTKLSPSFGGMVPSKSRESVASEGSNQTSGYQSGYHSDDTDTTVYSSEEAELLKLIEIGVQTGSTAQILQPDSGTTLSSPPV

Jnk2 = molecular target: T7, Jnk2 (Homo sapiens, UniProt P45984); test: AlphaScreen kinase assay, Jnk2; conditions: read-out: IC50, activity toward kinase Jnk2
T7 construct: purchased Roche Protein Expression Group (Indianapolis, IN)
Outline: (§1)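 AlphaScreen, biotin-peptide substrate; streptavidin donor/anti-phospho acceptor beads; decreased emission = inhibition. Cpds 20 mM DMSO stock, 1:3 x 8 conc.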

Btk = molecular target: T8, Btk (Homo sapiens, UniProt Q06187); test: Z'-Lyte FRET kinase assay (Invitrogen), Btk; conditions: read-out: IC50, activity toward kinase Btk
T8 construct: purchased Invitrogen (assay run by Invitrogen)

Jnk3 = molecular target: T9, Jnk3 (Homo sapiens, UniProt P53779); test: AlphaScreen kinase assay, Jnk3; conditions: read-out: IC50, activity toward kinase Jnk3
T9 construct: purchased Upstate Biotechnology

Jnk1 = molecular target: T10, Jnk1 (Homo sapiens, UniProt P45983); test: AlphaScreen kinase assay, Jnk1; conditions: read-out: IC50, activity toward kinase Jnk1
T10 construct: purchased Upstate Biotechnology

B-Raf V600E = molecular target: T11, B-Raf V600E (Homo sapiens, UniProt P15056, V600E); test: AlphaScreen kinase assay, B-Raf V600E; conditions: read-out: IC50, activity toward kinase B-Raf V600E
T11 construct: P4254. pFastBacBD-CDC37 BRAF D437-K722-X, V600E; His6 with pFastBac HT leader (TEV site) (N); made in house; host or cells: Sf9 (baculovirus; chaperone CDC37 co-expressed)

Fak = molecular target: T12, Fak (Homo sapiens, UniProt Q05397); test: AlphaScreen kinase assay, Fak; conditions: read-out: IC50, activity toward kinase Fak
T12 construct: P1358.pFastBacHtb FAK S411-Q686-X; His6 with pFastBacHTb leader (TEV site) (N); made in house; host or cells: Sf9 (baculovirus)

Akt3 = Akt3 (Homo sapiens, UniProt Q9Y243); test: AlphaScreen kinase assay, Akt3; conditions: read-out: IC50, activity toward kinase Akt3
Chain of Akt3 (Q9Y243 whole entry): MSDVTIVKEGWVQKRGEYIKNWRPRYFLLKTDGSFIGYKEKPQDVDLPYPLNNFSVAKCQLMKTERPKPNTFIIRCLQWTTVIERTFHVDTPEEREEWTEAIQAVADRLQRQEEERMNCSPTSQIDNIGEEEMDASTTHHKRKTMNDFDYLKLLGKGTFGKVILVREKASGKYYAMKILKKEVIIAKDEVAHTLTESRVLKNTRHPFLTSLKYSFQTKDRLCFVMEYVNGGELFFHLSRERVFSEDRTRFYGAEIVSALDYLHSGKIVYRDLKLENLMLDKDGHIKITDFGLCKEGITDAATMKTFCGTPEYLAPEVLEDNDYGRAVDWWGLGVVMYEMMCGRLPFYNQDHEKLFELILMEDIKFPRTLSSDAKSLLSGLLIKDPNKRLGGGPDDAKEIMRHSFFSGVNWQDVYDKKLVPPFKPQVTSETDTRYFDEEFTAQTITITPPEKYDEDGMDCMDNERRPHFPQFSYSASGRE
Outline: as §1

Yes = molecular target: T13, Yes (Homo sapiens, UniProt P07947); test: Z'-Lyte FRET kinase assay (Invitrogen), Yes; conditions: read-out: IC50, activity toward kinase Yes
T13 construct: purchased Invitrogen (Carlsbad, Calif.), screening service
Outline: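 Under a compound concentration curve, the kinase acted on a dual-labelled peptide at 2 μM with ATP at 10 μM for one hour at ambient temperature (buffer pH 7.5, 1% DMSO). Phosphorylation extent came from the emission ratio after protease development.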

Fms = molecular target: T14, Fms (Homo sapiens, UniProt P07333); test: AlphaScreen kinase assay, Fms; conditions: read-out: IC50, activity toward kinase Fms
T14 construct: purchased Upstate Biotechnology

FGFR1 = molecular target: T15, FGFR1 (Homo sapiens, UniProt P11362, C488A/C584S); test: AlphaScreen kinase assay, FGFR1; conditions: read-out: IC50, activity toward kinase FGFR
T15 construct: P1351.pET N6 BI-PTP FGFR A458-E765-X C488A, C584S; made in house; host or cells: E. coli (PTP1B co-expressed)
T15 sequence (P11362 458-765 C488A/C584S): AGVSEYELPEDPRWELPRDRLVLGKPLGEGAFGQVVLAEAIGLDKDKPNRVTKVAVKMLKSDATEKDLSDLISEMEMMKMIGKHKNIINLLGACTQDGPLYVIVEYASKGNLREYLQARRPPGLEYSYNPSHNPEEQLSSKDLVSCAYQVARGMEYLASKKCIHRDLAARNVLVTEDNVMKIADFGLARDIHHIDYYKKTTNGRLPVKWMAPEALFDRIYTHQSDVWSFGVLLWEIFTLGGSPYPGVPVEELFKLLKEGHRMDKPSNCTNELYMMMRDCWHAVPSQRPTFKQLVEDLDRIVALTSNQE

B-Raf = molecular target: T16, B-Raf (Homo sapiens, UniProt P15056); test: AlphaScreen kinase assay, B-Raf; conditions: read-out: IC50, activity toward kinase B-Raf
T16 construct: purchased Upstate Biotechnology
T16 sequence (P15056 whole entry): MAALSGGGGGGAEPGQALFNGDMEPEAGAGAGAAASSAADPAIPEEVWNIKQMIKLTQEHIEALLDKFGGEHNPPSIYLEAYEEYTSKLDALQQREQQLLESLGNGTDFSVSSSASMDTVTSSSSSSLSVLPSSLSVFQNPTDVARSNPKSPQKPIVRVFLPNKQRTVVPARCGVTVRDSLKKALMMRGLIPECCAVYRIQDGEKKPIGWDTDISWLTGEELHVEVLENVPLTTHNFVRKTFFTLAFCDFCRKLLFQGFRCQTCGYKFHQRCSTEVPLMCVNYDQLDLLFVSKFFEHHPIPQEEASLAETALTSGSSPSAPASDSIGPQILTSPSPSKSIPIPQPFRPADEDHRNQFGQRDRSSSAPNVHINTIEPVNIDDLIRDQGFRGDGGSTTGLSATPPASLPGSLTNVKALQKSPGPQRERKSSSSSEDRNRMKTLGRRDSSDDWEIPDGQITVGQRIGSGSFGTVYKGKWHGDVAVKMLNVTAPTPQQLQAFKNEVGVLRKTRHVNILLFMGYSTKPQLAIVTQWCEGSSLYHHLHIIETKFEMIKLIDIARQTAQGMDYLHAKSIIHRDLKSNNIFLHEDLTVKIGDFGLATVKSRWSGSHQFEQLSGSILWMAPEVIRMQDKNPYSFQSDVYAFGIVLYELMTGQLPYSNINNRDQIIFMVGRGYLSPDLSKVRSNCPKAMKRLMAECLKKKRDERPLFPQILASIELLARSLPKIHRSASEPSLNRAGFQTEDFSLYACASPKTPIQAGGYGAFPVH

c-Raf-1 = molecular target: T17, c-Raf-1 (Homo sapiens, UniProt P04049); test: AlphaScreen kinase assay, c-Raf-1; conditions: read-out: IC50, activity toward kinase c-Raf-1
T17 construct: purchased Upstate Biotechnology

Src = molecular target: T18, Src (Homo sapiens, UniProt P12931); test: AlphaScreen kinase assay, Src; conditions: read-out: IC50, activity toward kinase Src
T18 construct: P1144. pET-N6 BI-PTP SRC V86-L536-X; made in house

Flt1 = molecular target: T19, Flt1 (Homo sapiens, UniProt P17948); test: AlphaScreen kinase assay, Flt1; conditions: read-out: IC50, activity toward kinase Flt1
T19 construct: P1826.pETN6 BI-PTP FLT1 M799-D1165-X WT; His6 (N); made in house; host or cells: E. coli (PTP1B co-expressed)
T19 sequence (P17948 with tags, fused parts or gaps): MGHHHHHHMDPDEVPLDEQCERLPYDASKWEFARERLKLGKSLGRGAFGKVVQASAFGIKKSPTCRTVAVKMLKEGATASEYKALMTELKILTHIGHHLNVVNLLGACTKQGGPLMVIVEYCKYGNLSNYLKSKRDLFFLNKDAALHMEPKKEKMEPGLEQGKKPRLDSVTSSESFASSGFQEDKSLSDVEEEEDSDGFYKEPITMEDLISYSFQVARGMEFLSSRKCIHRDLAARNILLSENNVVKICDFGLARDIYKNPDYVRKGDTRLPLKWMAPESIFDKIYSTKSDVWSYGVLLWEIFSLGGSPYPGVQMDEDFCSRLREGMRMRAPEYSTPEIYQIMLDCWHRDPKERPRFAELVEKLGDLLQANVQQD

Zap70 = molecular target: T20, Zap70 (Homo sapiens, UniProt P43403); test: AlphaScreen kinase assay, Zap70; conditions: read-out: IC50, activity toward kinase Zap70
T20 construct: P1868.pFastBac1 ZAP70 D327-G606 HIS, WT; His7 (HHHHHHH) (C); made in house
T20 sequence (P43403 with tags, fused parts or gaps): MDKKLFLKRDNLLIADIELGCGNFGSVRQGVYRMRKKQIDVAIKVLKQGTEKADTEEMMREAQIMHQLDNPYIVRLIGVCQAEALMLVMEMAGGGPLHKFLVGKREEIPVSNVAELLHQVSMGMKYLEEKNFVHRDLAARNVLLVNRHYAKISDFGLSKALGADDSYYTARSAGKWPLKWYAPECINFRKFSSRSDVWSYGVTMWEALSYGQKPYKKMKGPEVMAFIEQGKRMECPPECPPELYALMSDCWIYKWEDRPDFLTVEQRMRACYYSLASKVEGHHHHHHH
Outline: as §1

IC50 (PKC theta): ≤ 10 µM
IC50 (Kit): ≤ 10 µM
IC50 (Pyk2): ≤ 10 µM
IC50 (MAP4K4): ≤ 10 µM
IC50 (Ret): ≤ 10 µM
IC50 (Stk6): ≤ 10 µM
IC50 (Kdr): ≤ 10 µM
IC50 (Jnk2): ≤ 10 µM
Compound: O=C1Nc2ccccc2/C1=C/c1c[nH]c2ncccc12 [Compound P-0069]

IC50 (PKC theta): ≤ 10 µM
IC50 (Btk): ≤ 10 µM
IC50 (Jnk3): ≤ 10 µM
IC50 (Kit): ≤ 10 µM
IC50 (Pyk2): ≤ 10 µM
IC50 (Jnk1): ≤ 10 µM
IC50 (B-Raf V600E): ≤ 10 µM
IC50 (Fak): ≤ 10 µM
IC50 (Akt3): ≤ 10 µM
IC50 (Yes): ≤ 10 µM
IC50 (Fms): ≤ 10 µM
IC50 (FGFR1): ≤ 10 µM
IC50 (B-Raf): ≤ 10 µM
IC50 (c-Raf-1): ≤ 10 µM
IC50 (Src): ≤ 10 µM
IC50 (Kdr): ≤ 10 µM
IC50 (Flt1): ≤ 10 µM
Compound: O=C(c1ccc(O)cc1Cl)c1c[nH]c2ncc(-c3cccs3)cc12 [Compound P-0112]

IC50 (PKC theta): ≤ 10 µM
IC50 (Kit): ≤ 10 µM
IC50 (Zap70): ≤ 10 µM
IC50 (Stk6): ≤ 10 µM
IC50 (Kdr): ≤ 10 µM
Compound: CC(=O)Nc1cccc(-c2ccnc3[nH]ccc23)c1 [Compound P-0030]
